# Assay results reported in paper PMC12064818, “A general assay platform to study protein pharmacology using ligand-dependent structural dynamics” (Nature Communications, 2025).
# “And” between values parts separate entries of the source, which are not always exact repeats. Equal values may be shown once.
# Experiments:
# [1] = biological target: FLuc-C-HiBiT (firefly luciferase) (Photinus pyralis, UniProt P08659, form not given/L550V); assay: Firefly luciferase (FLuc) enzymatic luminescence assay, FLuc-C-HiBiT; assay type: biochemical; details: for 10 nM FLuc-C-HiBiT Enz, Mean: Log [PTC124]
# Sequence of FLuc-C-HiBiT (firefly luciferase) (P08659 2-550 L550V, form open): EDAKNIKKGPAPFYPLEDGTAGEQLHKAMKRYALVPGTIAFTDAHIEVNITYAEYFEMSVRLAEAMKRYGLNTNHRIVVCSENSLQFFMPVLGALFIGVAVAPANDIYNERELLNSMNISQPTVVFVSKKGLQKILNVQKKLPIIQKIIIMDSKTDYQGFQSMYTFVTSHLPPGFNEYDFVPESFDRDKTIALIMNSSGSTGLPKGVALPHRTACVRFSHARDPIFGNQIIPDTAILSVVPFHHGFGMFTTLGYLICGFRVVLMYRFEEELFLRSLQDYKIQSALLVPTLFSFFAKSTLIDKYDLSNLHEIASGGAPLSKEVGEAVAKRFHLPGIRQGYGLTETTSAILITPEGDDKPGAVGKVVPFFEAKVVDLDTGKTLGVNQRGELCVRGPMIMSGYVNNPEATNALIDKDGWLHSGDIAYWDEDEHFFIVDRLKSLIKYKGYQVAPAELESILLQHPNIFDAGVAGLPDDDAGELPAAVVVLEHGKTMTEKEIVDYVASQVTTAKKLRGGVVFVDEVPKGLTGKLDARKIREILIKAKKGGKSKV
# Procedure, shortened: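 Compounds were preincubated 30–60 min at room temperature in the dark with 1–10 nM fusion enzyme in PBS pH 7.4. D-luciferin was then added (10 µM final) for 5 min before luminescence was imaged. Inhibition was normalized to no-enzyme control (100%) and DMSO neutral control.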
# [2] = biological target: FLuc-C-NLuc (firefly luciferase) (Photinus pyralis, UniProt P08659, form not given/L550V); assay: SDR assay, FLuc-C-NLuc; details: for SDR + 10 mM ATP / SDR No ATP: 1 nM FLuc-C-NLuc, Log [PTC124], replicates
# Sequence of FLuc-C-NLuc (firefly luciferase) (P08659 2-550 L550V, form open): as above
# [3] = FLuc-C-HiBiT (10 nM) + 10 mM ATP, 32.8 µM ligand
compound,measurement,setting,value
"O=C(O)c1cccc(-c2noc(-c3ccccc3F)n2)c1 [PTC124, reference compound]","pIC50, FLuc-C-HiBiT (10 nM)",[1]; 10 μM ATP,7.95 ± 0.02
same,Standard assay statistics Ave RLU,[1]; [3],48.5 RLU
same,Standard assay statistics S:B,[1]; [3],0.0352
same,Standard assay statistics S:N,[1]; [3],-14.1
same,Standard assay statistics Z’,[1]; [3],0.761
same,"10 nM FLuc-C-HiBiT Enz, Mean",[1]; M (Enz) -4.24,3.7 RLU
same,"10 nM FLuc-C-HiBiT Enz, Mean",[1]; M (Enz) -4.72,3.6 RLU
same,"10 nM FLuc-C-HiBiT Enz, Mean",[1]; M (Enz) -5.19,3.8 RLU
same,"10 nM FLuc-C-HiBiT Enz, Mean",[1]; M (Enz) -5.67,4.4 RLU
same,"10 nM FLuc-C-HiBiT Enz, Mean",[1]; M (Enz) -6.15,4.9 RLU
same,"10 nM FLuc-C-HiBiT Enz, Mean",[1]; M (Enz) -6.63,6.7 RLU
same,"10 nM FLuc-C-HiBiT Enz, Mean",[1]; M (Enz) -7.10,13.5 RLU
same,"10 nM FLuc-C-HiBiT Enz, Mean",[1]; M (Enz) -7.58,42.4 RLU
same,"10 nM FLuc-C-HiBiT Enz, Mean",[1]; M (Enz) -8.06,126.0 RLU
same,"10 nM FLuc-C-HiBiT Enz, Mean",[1]; M (Enz) -8.53,177.8 RLU
same,"10 nM FLuc-C-HiBiT Enz, Mean",[1]; M (Enz) -9.01,195.6 RLU
same,"10 nM FLuc-C-HiBiT Enz, Mean",[1]; M (Enz) -9.49,204.3 RLU
same,"10 nM FLuc-C-HiBiT Enz, Mean",[1]; M (Enz) -9.97,206.3 RLU
same,"10 nM FLuc-C-HiBiT Enz, Mean",[1]; M (Enz) -10.44,203.9 RLU
same,"10 nM FLuc-C-HiBiT Enz, Mean",[1]; M (Enz) -10.92,205.8 RLU
same,"10 nM FLuc-C-HiBiT Enz, Mean",[1]; M (Enz) -11.40,202.8 RLU
same,"pSDR50, FLuc-C-NLuc (1 nM)",[2]; 0 μM ATP,5.88 ± 0.04
same,SDR + 10 mM ATP,[2]; M -4.48,7557.2 RLU and 7497.6 RLU and 7631.5 RLU and 7551.6 RLU and 7524.6 RLU and 7378.2 RLU
same,SDR No ATP,[2]; M -4.48,7094.5 RLU and 7036.1 RLU and 7197.7 RLU and 7251.5 RLU and 7107.6 RLU and 7010.0 RLU
same,SDR + 10 mM ATP,[2]; M -4.96,8653.1 RLU and 8918.3 RLU and 8729.5 RLU and 8753.4 RLU and 8625.3 RLU and 8631.1 RLU
same,SDR No ATP,[2]; M -4.96,7649.4 RLU and 7690.6 RLU and 7782.9 RLU and 7784.7 RLU and 7753.8 RLU and 7789.6 RLU
same,SDR + 10 mM ATP,[2]; M -5.44,9503.1 RLU and 9394.8 RLU and 9366.2 RLU and 9511.1 RLU and 9276.8 RLU and 9264.6 RLU
same,SDR No ATP,[2]; M -5.44,7463.4 RLU and 7521.3 RLU and 7506.8 RLU and 7660.8 RLU and 7389.5 RLU and 7591.3 RLU
same,SDR + 10 mM ATP,[2]; M -5.91,9834.3 RLU and 9880.8 RLU and 9675.2 RLU and 9786.2 RLU and 9362.5 RLU and 9414.4 RLU
same,SDR No ATP,[2]; M -5.91,7041.2 RLU and 7015.2 RLU and 7004.0 RLU and 7050.2 RLU and 7076.1 RLU and 7039.0 RLU
same,SDR + 10 mM ATP,[2]; M -6.39,9915.0 RLU and 9970.8 RLU and 10012.5 RLU and 10081.2 RLU and 9830.9 RLU and 9904.0 RLU
same,SDR No ATP,[2]; M -6.39,6691.1 RLU and 6782.7 RLU and 6754.8 RLU and 6847.3 RLU and 6762.8 RLU and 6799.3 RLU
same,SDR + 10 mM ATP,[2]; M -6.87,10082.6 RLU and 10234.0 RLU and 10143.0 RLU and 10158.0 RLU and 9950.0 RLU and 10015.6 RLU
same,SDR No ATP,[2]; M -6.87,6611.5 RLU and 6294.6 RLU and 6649.4 RLU and 6762.3 RLU and 6579.8 RLU and 6635.0 RLU
same,SDR + 10 mM ATP,[2]; M -7.35,10197.1 RLU and 10347.4 RLU and 10179.3 RLU and 10327.2 RLU and 10158.4 RLU and 10151.6 RLU
same,SDR No ATP,[2]; M -7.35,6611.5 RLU and 6675.5 RLU and 6753.6 RLU and 6721.7 RLU and 6667.7 RLU and 6659.2 RLU
same,SDR + 10 mM ATP,[2]; M -7.82,10273.2 RLU and 10529.0 RLU and 10260.9 RLU and 10390.3 RLU and 10195.8 RLU and 10173.3 RLU
same,SDR No ATP,[2]; M -7.82,6601.3 RLU and 6794.9 RLU and 6657.3 RLU and 6777.0 RLU and 6066.9 RLU and 6627.0 RLU
same,SDR + 10 mM ATP,[2]; M -8.30,10428.2 RLU and 10351.9 RLU and 10431.4 RLU and 10340.3 RLU and 10350.0 RLU and 10135.7 RLU
same,SDR No ATP,[2]; M -8.30,6797.1 RLU and 6778.7 RLU and 6811.3 RLU and 6783.1 RLU and 6776.8 RLU and 6755.1 RLU
same,SDR + 10 mM ATP,[2]; M -8.78,10307.0 RLU and 10240.9 RLU and 10295.8 RLU and 10255.7 RLU and 10212.3 RLU and 10156.0 RLU
same,SDR No ATP,[2]; M -8.78,6765.6 RLU and 6820.8 RLU and 6789.0 RLU and 6870.9 RLU and 6762.2 RLU and 6786.7 RLU
same,SDR + 10 mM ATP,[2]; M -9.25,9955.6 RLU and 10061.6 RLU and 10070.3 RLU and 10144.7 RLU and 9901.2 RLU and 9937.3 RLU
same,SDR No ATP,[2]; M -9.25,6778.5 RLU and 6738.4 RLU and 6784.4 RLU and 6835.7 RLU and 6812.5 RLU and 6775.6 RLU
same,SDR + 10 mM ATP,[2]; M -9.73,9060.9 RLU and 8791.4 RLU and 9269.7 RLU and 9103.3 RLU and 8979.5 RLU and 9077.2 RLU
same,SDR No ATP,[2]; M -9.73,6814.0 RLU and 6880.4 RLU and 6857.6 RLU and 6871.7 RLU (2×) and 6648.1 RLU
same,SDR + 10 mM ATP,[2]; M -10.21,8039.8 RLU and 7910.0 RLU and 8237.3 RLU and 8034.2 RLU and 8059.8 RLU and 8095.1 RLU
